Data: PubChem BioAssay AID264 (DTP/NCI, 2004)
“And” between values parts separate entries of the source, which are not always exact repeats. Identical values can stand only once. Inconclusive results are not listed.

Test system: nude mice, LX-1 lung xenograft intrarenal, tumor weight T/C
Test: NCI In Vivo Anticancer Drug Screen. Data for tumor model Human Lung LX-1 Xenograft (intrarenal inoculation) in NU/NU Swiss (nude) mice
Conditions: endpoint: mean tumor weight change, higher = larger tumour
How it was run: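 Compound-treated mice carrying transplanted tumors were compared with vehicle-treated controls. Tumor size was the measured end point, and the value is the treated-group measurement divided by the control-group measurement (T/C).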

[1] = dose: 300.0 mg/kg/injection, schedule: Q04DX003 (sc), vehicle: suspension in saline
[2] = dose: 25.0 mg/kg/injection, schedule: Q01DX010 (sc), vehicle: Klucel (hydroxypropylcellulose) (HPC)
[3] = dose: 50.0 mg/kg/injection, schedule: Q01DX010 (sc), vehicle: Klucel (hydroxypropylcellulose) (HPC)
[4] = dose: 300.0 mg/kg/injection, schedule: Q04DX003 (sc), vehicle: Klucel (hydroxypropylcellulose) (HPC)
[5] = dose: 600.0 mg/kg/injection, schedule: Q04DX003 (sc), vehicle: Klucel (hydroxypropylcellulose) (HPC)
[6] = dose: 1200.0 mg/kg/injection, schedule: Q04DX003 (sc), vehicle: Klucel (hydroxypropylcellulose) (HPC)
[7] = dose: 100.0 mg/kg/injection, schedule: Q04DX003 (sc), vehicle: saline with Tween-80
[8] = dose: 400.0 mg/kg/injection, schedule: Q04DX003 (sc), vehicle: saline with Tween-80
[9] = dose: 2400.0 mg/kg/injection, schedule: Q04DX003 (sc), vehicle: Klucel (hydroxypropylcellulose) (HPC)
[10] = dose: 200.0 mg/kg/injection, schedule: Q01DX010 (sc), vehicle: Klucel (hydroxypropylcellulose) (HPC)

COC1C(/C=C/C(C)=O)OC2OC(C)(C)OC21 (configuration not stated)
T/C (dose: 75.0 mg/kg/injection, schedule: Q04DX003 (sc), vehicle: suspension in saline): 52 % of control | T/C (dose: 150.0 mg/kg/injection, schedule: Q04DX003 (sc), vehicle: suspension in saline): 158 % of control | T/C [1]: 123 % of control

CC1CN1P1(N2CC2C)=NP(N2CC2C)(N2CC2C)=NP(N2CC2C)(N2CC2C)=N1 (configuration not stated)
T/C (dose: 50.0 mg/kg/injection, schedule: Q01DX010 (sc), vehicle: saline): 47 % of control and 60 % of control and 67 % of control | T/C (dose: 100.0 mg/kg/injection, schedule: Q01DX010 (sc), vehicle: saline): 14 % of control and 15 % of control and 25 % of control

CN(C)c1ccc(C(=C2C=CC(=[N+](C)C)C=C2)c2ccc(N(C)C)cc2)cc1 (tested in a mixture with another compound)
T/C (dose: 7.5 mg/kg/injection, schedule: Q04DX003 (sc), vehicle: saline with Tween-80): 76 % of control | T/C (dose: 15.0 mg/kg/injection, schedule: Q04DX003 (sc), vehicle: saline with Tween-80): 59 % of control | T/C (dose: 30.0 mg/kg/injection, schedule: Q04DX003 (sc), vehicle: saline with Tween-80): 98 % of control | T/C (dose: 60.0 mg/kg/injection, schedule: Q04DX003 (sc), vehicle: saline with Tween-80): 65 % of control

NC(CSC(c1ccccc1)(c1ccccc1)c1ccccc1)C(=O)O (configuration not stated)
T/C [2]: 86 % of control | T/C [3]: 155 % of control

COc1cc(C(=O)c2cocc2C(=O)c2ccc3c(c2)OCO3)cc(OC)c1OC
T/C [4]: 160 % of control | T/C [5]: 80 % of control | T/C [6]: 94 % of control

COC1=C(C)C(=O)C2=C(C1=O)C1C3CC4=C(C(=O)C(OC)=C(C)C4=O)C(CNC(=O)C(C)=O)N3C(C#N)C(C2)N1C (configuration not stated)
T/C (dose: 1.0 mg/kg/injection, schedule: Q04DX003 (sc), vehicle: Klucel (hydroxypropylcellulose) (HPC)): 111 % of control | T/C (dose: 2.0 mg/kg/injection, schedule: Q04DX003 (sc), vehicle: Klucel (hydroxypropylcellulose) (HPC)): 105 % of control | T/C (dose: 4.0 mg/kg/injection, schedule: Q04DX003 (sc), vehicle: Klucel (hydroxypropylcellulose) (HPC)): 59 % of control

CC(C)CCCCCCCCCCCCC(=O)NCC(=O)NC1C(C)OC(Nc2ncnc3nc[nH]c23)C(O)C1O (configuration not stated)
T/C (dose: 4.0 mg/kg/injection, schedule: Q01DX010 (sc), vehicle: distilled water + Tween-80): 31 % of control and 33 % of control | T/C (dose: 8.0 mg/kg/injection, schedule: Q01DX010 (sc), vehicle: distilled water + Tween-80): 24 % of control | T/C (dose: 32.0 mg/kg/injection, schedule: Q01DX010 (sc), vehicle: distilled water + Tween-80): 28 % of control

CC1=C(/C=C/C(C)=C/C=C/C(C)=C/CO)C(C)(C)CCC1
T/C (dose: 50.0 mg/kg/injection, schedule: Q04DX003 (sc), vehicle: saline with Tween-80): 105 % of control | T/C [7]: 150 % of control | T/C [8]: 111 % of control

NC(Cn1ccc(=O)c(O)c1)C(=O)O (configuration not stated)
T/C [1]: 115 % of control | T/C (dose: 600.0 mg/kg/injection, schedule: Q04DX003 (sc), vehicle: suspension in saline): 104 % of control | T/C (dose: 1200.0 mg/kg/injection, schedule: Q04DX003 (sc), vehicle: suspension in saline): 119 % of control | T/C (dose: 2400.0 mg/kg/injection, schedule: Q04DX003 (sc), vehicle: suspension in saline): 73 % of control

OC1CCCC2CCCNC12 (configuration not stated)
T/C (dose: 37.5 mg/kg/injection, schedule: Q04DX003 (sc), vehicle: saline with Tween-80): 81 % of control | T/C (dose: 75.0 mg/kg/injection, schedule: Q04DX003 (sc), vehicle: saline with Tween-80): 93 % of control | T/C (dose: 150.0 mg/kg/injection, schedule: Q04DX003 (sc), vehicle: saline with Tween-80): 75 % of control

CO[C@H]1C[C@](C)(O)Cc2cc3c(c(O)c21)C(=O)c1c(O)cc2c(c1C3=O)O[C@@H]1O[C@@]2(C)[C@H](O)[C@@H](N(C)C)[C@@H]1O
T/C (dose: 3.12 mg/kg/injection, schedule: Q01DX010 (sc), vehicle: other): 68 % of control | T/C (dose: 6.25 mg/kg/injection, schedule: Q01DX010 (sc), vehicle: other): 63 % of control and 70 % of control | T/C (dose: 12.5 mg/kg/injection, schedule: Q01DX010 (sc), vehicle: other): 23 % of control

O=NN(CCF)C(=O)NC1CCCCC1
T/C (dose: 6.25 mg/kg/injection, schedule: Q04DX003 (sc), vehicle: Klucel (hydroxypropylcellulose) (HPC)): 66 % of control | T/C (dose: 12.5 mg/kg/injection, schedule: Q04DX003 (sc), vehicle: Klucel (hydroxypropylcellulose) (HPC)): 39 % of control

COc1ccc(C(=O)c2no[n+]([O-])c2C(=O)c2ccc(OC)cc2)cc1
T/C [7]: 84 % of control | T/C (dose: 200.0 mg/kg/injection, schedule: Q04DX003 (sc), vehicle: saline with Tween-80): 91 % of control | T/C [8]: 99 % of control | T/C (dose: 800.0 mg/kg/injection, schedule: Q04DX003 (sc), vehicle: saline with Tween-80): 109 % of control

COC(=O)C12OCC34C(CC5C(C)=CC(=O)C(O)C5(C)C3C(O)C1O)OC(=O)C(OC(=O)CC(C)C)C24 (configuration not stated)
T/C (dose: 3.0 mg/kg/injection, schedule: Q04DX003 (sc), vehicle: saline + alcohol): 48 % of control

Cc1ccc(C2NC(=O)c3ccccc3N2)s1 (configuration not stated)
T/C [5]: 106 % of control | T/C [6]: 86 % of control | T/C [9]: 82 % of control | T/C (dose: 4800.0 mg/kg/injection, schedule: Q04DX003 (sc), vehicle: Klucel (hydroxypropylcellulose) (HPC)): 94 % of control

NCCc1ccc(O)c(O)c1
T/C (dose: 200.0 mg/kg/injection, schedule: Q01DX010 (sc), vehicle: saline): 113 % of control | T/C (dose: 400.0 mg/kg/injection, schedule: Q01DX010 (sc), vehicle: saline): 92 % of control | T/C (dose: 800.0 mg/kg/injection, schedule: Q01DX010 (sc), vehicle: saline): 52 % of control

CCc1ccccc1N1CCN(C(=O)c2cc(OC)c(OC)c(OC)c2)CC1
T/C [4]: 62 % of control | T/C [5]: 34 % of control | T/C [6]: 33 % of control | T/C [9]: 30 % of control

NC(C(=O)O)c1ccc(CBr)cc1 (configuration not stated)
T/C (dose: 300.0 mg/kg/injection, schedule: Q04DX003 (sc), vehicle: acid diluted with saline): 96 % of control

C[C@]12CCC(=O)C(O)=C1CC[C@@H]1[C@@H]2CC[C@]2(C)C(=O)CC[C@@H]12
T/C [3]: 43 % of control | T/C (dose: 100.0 mg/kg/injection, schedule: Q01DX010 (sc), vehicle: Klucel (hydroxypropylcellulose) (HPC)): 30 % of control | T/C [10]: 47 % of control | T/C (dose: 400.0 mg/kg/injection, schedule: Q01DX010 (sc), vehicle: Klucel (hydroxypropylcellulose) (HPC)): 48 % of control

COc1cc(NCCCCCCCNC(C)C)c2nccc(C)c2c1
T/C (dose: 37.5 mg/kg/injection, schedule: Q04DX003 (sc), vehicle: saline): 105 % of control | T/C (dose: 150.0 mg/kg/injection, schedule: Q04DX003 (sc), vehicle: saline): 87 % of control

CNC(=O)OCc1c(COC(=O)NC)c(-c2ccc(Cl)c(Cl)c2)n2c1Cc1ccccc1C2
T/C (dose: 150.0 mg/kg/injection, schedule: Q04DX003 (sc), vehicle: distilled water + Tween-80): 97 % of control | T/C (dose: 300.0 mg/kg/injection, schedule: Q04DX003 (sc), vehicle: distilled water + Tween-80): 71 % of control | T/C (dose: 600.0 mg/kg/injection, schedule: Q04DX003 (sc), vehicle: distilled water + Tween-80): 58 % of control | T/C (dose: 1200.0 mg/kg/injection, schedule: Q04DX003 (sc), vehicle: distilled water + Tween-80): 54 % of control

N=[N+]=CC(=O)CCC(NC(=O)C(CCC(=O)C=[N+]=N)NC(=O)CCC(N)C(=O)O)C(=O)O (configuration not stated)
T/C (dose: 1.6 mg/kg/injection, schedule: Q04DX003 (sc), vehicle: water): 119 % of control | T/C (dose: 3.2 mg/kg/injection, schedule: Q04DX003 (sc), vehicle: water): 86 % of control | T/C (dose: 6.4 mg/kg/injection, schedule: Q04DX003 (sc), vehicle: water): 119 % of control | T/C (dose: 12.8 mg/kg/injection, schedule: Q04DX003 (sc), vehicle: water): 91 % of control

O=C1c2ccccc2C(=O)c2c(NCCNCCO)ccc(NCCNCCO)c21
T/C (dose: 4.0 mg/kg/injection, schedule: Q01DX010 (sc), vehicle: water): 54 % of control | T/C (dose: 16.0 mg/kg/injection, schedule: Q01DX010 (sc), vehicle: water): 65 % of control

O=c1oc2c(O)c(O)cc3c(=O)oc4c(O)c(O)cc1c4c23
T/C (dose: 150.0 mg/kg/injection, schedule: Q04DX003 (sc), vehicle: Klucel (hydroxypropylcellulose) (HPC)): 215 % of control | T/C [4]: 86 % of control | T/C [5]: 88 % of control | T/C [6]: 81 % of control

CC(=O)OCc1cc(=O)n(C)c2c3c4c(cc12)c(C)cc(=O)n4CO3
T/C [2]: 113 % of control | T/C [3]: 83 % of control and 222 % of control | T/C [10]: 93 % of control and 105 % of control

CC[N+](CC)(CC)CC
T/C (dose: 1.5 mg/kg/injection, schedule: Q01DX010 (sc), vehicle: saline with Tween-80): 88 % of control | T/C (dose: 12.0 mg/kg/injection, schedule: Q01DX010 (sc), vehicle: saline with Tween-80): 25 % of control and 49 % of control
